Source: publication PMC4117768, “Conjugation with polyamines enhances the antibacterial and anticancer activity of chloramphenicol” (Nucleic Acids Research, 2014)
Entries after “also recorded” stand apart in the source; their conditions may differ. Like-named read-outs stand apart in the source and are kept apart here.

What was measured:
[1] = tested on: E. coli (A2058G) TA531 cells with pKK35 plasmid, mutated 23S rRNA; experiment: Growth inhibition of bacterial cell cultures, CAM-resistant mutant; type: cell-based; conditions: for IC50: Escherichia coli, read-out: IC50 (inhibit the growth by half)
Excerpt: (§1) CAM free base [D-(-)threo-1-(p-nitrophenyl)-2-amino-1,3-propanediol], puromycin dihydrochloride, tRNA^Phe from E. coli, dimethyl sulfate (DMS), DMS stop solution and tRNA^Phe from E. coli were purchased from Sigma-Aldrich. Kethoxal and 1-cyclohexyl-3-(2-morpholinoethyl)-carbodiimide metho-p-toluene sulfate (CMCT) were from MP Biomedicals and Fluka Biochemicals, respectively. AMV reverse transcriptase was supplied by Roche, dNTPs by HT Biotechnology, and ddNTPs by Jena Bioscience. L-[2,3,4,5,6 -^3H]Phenylalanine was from Amersham Biosciences and [α-^32P]ATP from Izotop. Cellulose nitrate filters (type HA; 0.45 μm pore size) were from Millipore Corp. Details in experimental procedures of synthesis and physical and spectra data for the synthesized compounds will be published elsewhere. […] The mesothelioma cell line ZL34 and its immortalized counterpart cell line Met5A, were kindly provided by Prof. G. Stathopoulos (University of Patras).
(§2) S. aureus or E. coli cells (400 μl of a 0.700 OD560 preculture) containing wild-type or mutant ribosomes were added in 3.6 ml of LB (Luria Broth) medium and grown at 37°C in the presence or absence of CAM or PA–CAM conjugates until the optical density of the control culture (grown in the absence of drug) reached the value 0.700 at 560 nm. From the growth curves, the IC50 value for each strain was estimated as the concentration of the drug that is required to inhibit the growth by half.

[2] = tested on: E. coli (A2503C) TA531 cells with pKK35 plasmid, mutated 23S rRNA; experiment: as above; type: cell-based; conditions: for IC50: Escherichia coli, read-out: IC50 (inhibit the growth by half)
Excerpt: as §1, §2

[3] = tested on: human peripheral blood cells; experiment: Toxicity assay in human peripheral blood cells (cell counting); type: cell-based
Procedure: Peripheral blood was collected in EDTA-coated tubes from five healthy volunteers (age range: 25–30 years). Cell concentration was adjusted to 1.8 × 10^9 cells/l using RPMI-1640 medium (GIBCO BRL) containing 1% Penicillin/Streptomycin. CAM or PA–CAM conjugates were added at various concentrations and cells were cultured in triplicate under a humidified 5% CO2 atmosphere for 5 days, at 37°C. In parallel, cells were cultured in the absence of CAM or PA–CAM conjugates (control cultures). Counting of cells was performed daily in a CELL-DYN 3700 Hematology Analyzer (Abbott, USA) and values were expressed as a percentage of cells measured in control cultures.
Figure S1. Toxicity assays in human peripheral blood cells. Peripheral blood was collected in EDTA-coated tubes from 5 healthy volunteers (age range: 25-30 years). Cell concentration was adjusted to 1.8×10^9 cells/l using RPMI-1640 medium (GIBCO BRL) containing 1% penicillin/streptomycin. CAM or compound 4 was added at final concentrations equal to 30 or 60 μM and cells were cultured in triplicate under a humidified 5% CO2 atmosphere for 5 days, at 37°C. Control cultures were carried out in the absence of CAM or compound 4. Cultures were counted daily in a CELL-DYN 3700 Hematology Analyzer and values are expressed as a percentage of cells measured in control cultures.

wild-type S. aureus = experiment: Growth inhibition of bacterial cell cultures; type: cell-based; conditions: Staphylococcus aureus, read-out: IC50 (inhibit the growth by half)
Procedure: as §2

wild-type E. coli = experiment: Growth inhibition of bacterial cell cultures; type: cell-based; conditions: for IC50: Escherichia coli, read-out: IC50 (inhibit the growth by half); for IC50/IC50(puro): wild-type E. coli, IC50(puro) = concentration causing 50% inhibition in peptide-bond formation at 2 mM puromycin
Procedure: as §2

[4] = tested on: HS-Sultan (Burkitt's lymphoma) cells; experiment: Toxicity assay in leukemic cell line (cell counting, Annexin V flow cytometry); type: cell-based, human; conditions: for induction of apoptosis (flow cytometry) / induction of necrosis (flow cytometry): 60 μM; for sensitivity of cells / inhibition of cell proliferation (cell counting): increasing concentrations
Procedure: (§3) Human leukemic cell lines, HS-Sultan (Burkitt's lymphoma) (European Collection of Cell Cultures, Salisbury, UK), Jurkat (T-cell acute lymphoblastic leukemia) and U937 (histiocytic lymphoma) (American Type Culture Collection, Manassas, USA), were adjusted to 1 × 10^9 cells/l in RPMI-1640 medium containing 1% Penicillin/Streptomycin and 10% fetal bovine serum and grown in triplicate in the presence or absence of CAM or PA–CAM conjugates for 4 days at 37°C, under a humidified 5% CO2 atmosphere. The medium was changed after 2 days of exposure; CAM or PA-CAM addition was repeated after medium change to keep the appropriate drug concentration. Aliquots were collected daily and counted in a CELL-DYN 3700 Hematology Analyzer. For cell necrosis and apoptosis assays, samples (10^6 cells) were collected daily and determined using the Annexin V-PE Apoptosis Detection Kit I (BD Pharmingen) for flow cytometry ([29]), as described by the manufacturer. Flow cytometry data were analyzed using the FlowJo flow cytometry analysis software. Necrotic and apoptotic cells were expressed as a percentage of total cells.
(§4) Figure S2. Toxicity assays in leukemic cell lines. Human leukemic cell lines, HS-Sultan, Jurkat, and U937 were adjusted to 1×10^9 cells/l in RPMI-1640 medium containing 1% Penicillin/Streptomycin and 10% fetal bovine serum and grown in triplicate in the presence or absence of CAM or compound 4 at the indicated concentrations for 5 days at 37°C, under a humidified 5% CO2 atmosphere. Aliquots were collected daily and counted in a CELL-DYN 3700 Hematology Analyzer.
Figure S3. Toxicity assays in HS-Sultan cells. HS-Sultan cells were adjusted to 1×10^9 cells/l in RPMI-1640 medium containing 1% Penicillin/Streptomycin and 10% fetal bovine serum and grown in triplicate in the presence or absence of CAM or compound 4 at the indicated concentrations for 4 days at 37°C, under a humidified 5% CO2 atmosphere. For cell necrosis and apoptosis assays, samples (10^6 cells) were collected daily and determined using the Annexin V-PE Apoptosis Detection Kit I for flow cytometry. Non-viable and necrotic cells were expressed as a percentage of total cells.

[5] = tested on: Jurkat (T-cell acute lymphoblastic leukemia) cells; experiment: as above; type: cell-based, human; conditions: for sensitivity of cells / inhibition of cell proliferation (cell counting): increasing concentrations
Procedure: as §3, §4
Figure S4. Toxicity assays in Jurkat cells. Jurkat cells were adjusted to 1×10^9 cells/l in RPMI-1640 medium containing 1% Penicillin/Streptomycin and 10% fetal bovine serum and grown in triplicate in the presence or absence of CAM or compound 4 at the indicated concentrations for 4 days at 37°C, under a humidified 5% CO2 atmosphere. Cell necrosis and apoptosis assays were performed as described in Figure S3. Necrotic and apoptotic cells were expressed as a percentage of total cells.

| SMILES | IC50 superiority over CAM ([1]; E. coli A2058G mutant) [fold] | IC50 [1] [µM] | IC50 superiority over CAM ([2]; E. coli A2503C mutant) [fold] | IC50 [2] [µM] | effects on other types of leukocytes ([3]; 30 μM for 24 or 48 h) | effect on the viability of human monocytes and lymphocytes ([3]; 120 h culture period) | toxicity to neutrophils ([3]; 120 h culture period) | IC50 (wild-type S. aureus) [µM] | IC50 (wild-type E. coli) [µM] | IC50/IC50(puro) (wild-type E. coli) | induction of apoptosis (flow cytometry) [4] | induction of necrosis (flow cytometry) [4] | sensitivity of cells / inhibition of cell proliferation (cell counting) [4] | induction of necrosis (flow cytometry) ([5]; 60 μM) | sensitivity of cells / inhibition of cell proliferation (cell counting) [5] | reduction in the viability of neutrophils ([3]; 30 μM for 24 or 48 h) [%] | IC50 (wild-type S. aureus; WT-S. aureus, LB medium, 37°C) [µM] | IC50 (wild-type E. coli; WT-E. coli, LB medium, 37°C) [µM] | induction of apoptosis (flow cytometry) ([5]; 60 μM) |
| --- | --- | --- | --- | --- | --- | --- | --- | --- | --- | --- | --- | --- | --- | --- | --- | --- | --- | --- | --- |
| NCCCN(CCCCN(Cc1ccccc1)Cc1ccccc1)C(=O)CCC(=O)N[C@H](CO)[C@H](O)c1ccc([N+](=O)[O-])cc1 [Compound 4] | ~2 | 9.4 ± 1 | ~2 | 9.4 ± 0.9 | negligible | little or no effect | moderate and transient toxicity | 4.7 ± 0.5 | 9.4 ± 0.8 | 5.60 ± 0.76 | apoptosis to HS-Sultan cells | induced necrosis | sensitive; also recorded: more effective than CAM | induced necrosis | sensitive; also recorded: more effective than CAM |  |  |  |  |
| O=C(N[C@H](CO)[C@H](O)c1ccc([N+](=O)[O-])cc1)C(Cl)Cl [CAM, Chloramphenicol] |  | 15.5 ± 1.3 |  | 24.7 ± 2.3 | negligible |  |  |  |  | 1.17 ± 0.13 | failed to induce apoptosis | induced necrosis | sensitive | failed to induce necrosis/apoptosis | sensitive | 20 | 3.1 ± 0.3 | 6.2 ± 0.5 | failed to induce apoptosis |
